Experimental data published in patent US20110183969A1, “ANTIFUNGAL COMBINATION THERAPY” (priority 2008, published 2011).
Values after ≈ are worked out from the molar mass of the structure shown. Read-outs that look alike come from different tables or passages of the source.

Columns and labels:
Assay in all cases: MIC (YAG medium)
Format in all cases: cell-based
[1] = tested on: Aspergillus fumigatus AF293; conditions: for MIC: Aspergillus fumigatus
Procedure: (§1) Between 1 and 5 mgs of compound were accurately weighed out into a sterile Eppendorf tube. The compound was dissolved in DMSO to give a solution containing 5 mg/mL. Tubes were stored at −20° C. until required.
(§2) On the day of testing thawed solutions were vortex mixed to ensure homogeneity. 30 μL of solution was removed and added to 570 μL of sterile water in a separate sterile Eppendorf The thoroughly mixed solution was used to prepare a series of doubling dilutions in water, in a deep well plate. […] replicate plates were prepared using a Minitrak by aspirating 20 μL from each well into eleven clear polystyrene 96 well plates.
(§3) Spores of Aspergillus spp. (Aspergillus fumigatus [two strains], Aspergillus terreus [two strains], Aspergillus niger and Aspergillus flavus) were harvested from cultures grown on Sabarauds agar for 5 days, and resuspended in PBS/Tween 80 to approx 1×10^7 cfu/mL. Other filamentous fungi (Absidia corymbifera, Fusarium solani, Rhizomucor, Scedosporium spp., Trichophyton spp.), were grown on Sabarauds agar for 2-10 days and spores/hyphae resuspended in PBS/Tween to give approx 1×10^7 cfu/mL. Candida species (Candida albicans, Candida glabrata, Candida krusei, Candida parapsilosis and Candida tropicalis) were grown on Sabarauds agar, cells were harvested from the agar using a sterile loop and resuspended in PBS/Tween 80 to approx 1×10^6 cfu/mL. Each organism suspension was diluted in RPMI medium, containing 2% glucose and 0.135 M MOPS buffer (pH 7.0) to 0.5−2×10^4 cfu/mL for Aspergillus spp. and other filamentous fungi and 0.5-2×10^3 cfu/mL for yeast. 80 μL of an organism suspension was added to each well of the plate containing drug dilutions.
(§4) This produced MIC plates with a drug range 50-0.05 mg/L and organism inocula of 1-2×10^4 cfu/mL for Aspergillus spp. and other filamentous fungi and 1-2×10^3 cfu/mL for yeasts. All plates were incubated for 24-48 hrs at 35° C. Growth was assessed by monitoring the optical density at 485 nm for each well. The MIC of a compound is the lowest drug concentration that inhibits growth of an organism by >80% compared with a drug free control. MICs are recorded as mg/L. Other growth media can be used for susceptibility testing, and the activity of the described compounds can also be assessed in a medium comprising 1% glucose, 1% ammonium chloride and 0.5% yeast extract (YAG medium). To perform MIC tests in this medium, dilutions of compounds are prepared in microtitre plates as described above. Fungal strains to be tested are grown and harvested in an identical manner to that described above, each organism suspension is then diluted in YAG medium to 0.5-2×10^4 cfu/mL for Aspergillus spp. and other filamentous fungi and 0.5-2×10^3 cfu/mL for yeast. 80 μL of an organism suspension was added to each well of the plate containing drug dilutions. This produced MIC plates with a drug range 50-0.05 mg/L and organism inocula of 1-2×10^4 cfu/mL for Aspergillus spp. and other filamentous fungi and 1-2×10^3 cfu/mL for yeasts. All plates were incubated for 24 hrs at 35° C. Growth was assessed by monitoring the optical density at 485 nm for each well. The MIC of a compound is the lowest drug concentration that inhibits growth of an organism by >70% compared with a drug free control. MICs are recorded as mg/L. In cases where the MIC of an organism is […] mg/L the MIC is repeated using a concentration range of 0.5-0.0005 mg/L. MIC tests in YAG medium have more clear-cut endpoints and have slightly lower MICs than those performed in RPMI medium.
(§5) The following organisms were tested: Absidia corymbifera, Aspergillus flavus, Aspergillus fumigatus AF293 and AF210, Aspergillus niger, Aspergillus terreus AT4 and AT49, Candida albicans, Candida glabrata, Candida krusei, Candida parapsilosis, Candida tropicalis, Fusarium solani, Rhizomucor sp., Scedosporium apiospermum, Scedosporium prolificans, Trichophyton mentagrophytes, and Trichophyton rubrum.

Aspergillus terreus AT49 = conditions: for MIC: Aspergillus terreus
Procedure: as §1, §2, §3, §4, §5

[2] = tested on: Aspergillus fumigatus AF210; conditions: for MIC: Aspergillus fumigatus
Procedure: as §1, §2, §3, §4, §5

Aspergillus niger = conditions: for MIC: Aspergillus niger, read-out: MIC A. niger (grade)
Procedure: as §1, §2, §3, §4, §5

Aspergillus terreus AT4 = conditions: for MIC: Aspergillus terreus
Procedure: as §1, §2, §3, §4, §5

Aspergillus flavus = conditions: for MIC: Aspergillus flavus, read-out: MIC A. flavus (grade)
Procedure: as §1, §2, §3, §4, §5

[3] = YAG medium, MIC banded into grades, AF293, read-out: MIC A. fumigatus (grade)
[4] = YAG medium, MIC banded into grades, AT49, read-out: MIC A. terreus 49 (grade)
[5] = YAG medium, MIC banded into grades, AF210, read-out: MIC A. fumigatus 210 (grade)
[6] = YAG medium, MIC banded into grades
[7] = YAG medium, MIC banded into grades, AT4, read-out: MIC A. terreus (grade)
[8] = YAG medium, MIC banded into grades, AF293
[9] = YAG medium, MIC banded into grades, AT49
[10] = YAG medium, MIC banded into grades, AF210
[11] = YAG medium, MIC banded into grades, AT4

Compound | MIC [1, 3] | MIC (Aspergillus terreus AT49; [4]) | MIC [2, 5] | MIC (Aspergillus niger; [6]) | MIC (Aspergillus terreus AT4; [7]) | MIC (Aspergillus flavus; [6]) | MIC A. fumigatus (grade) [1, 8] | MIC A. terreus 49 (grade) (Aspergillus terreus AT49; [9]) | MIC A. fumigatus 210 (grade) [2, 10] | MIC A. niger (grade) (Aspergillus niger; [6]) | MIC A. terreus (grade) (Aspergillus terreus AT4; [11]) | MIC A. flavus (grade) (Aspergillus flavus; [6]) | other results
CC(C)c1nccn1CCOC(=O)C(C)(C)c1ccc(NC(=O)C(=O)c2c(-c3ccccc3)cc3ccccn23)cc1 [Example 18, 2-methyl-2-{4-[2-oxo-2-(2-phenyl-indolizin-3-yl)-acetylamino]-phenyl}-propionic acid 2-(2-isopropyl-imidazol-1-yl)-ethyl ester] | > 10 µg/mL | 1 to 10 µg/mL (≈ 1.78 to 17.8 µM) | > 10 µg/mL | > 10 µg/mL | > 10 µg/mL | > 10 µg/mL | – | – | – | – | – | – | –
Cc1nc(C(C)C)cn1C(C)(C)c1cccc(NC(=O)C(=O)c2c(-c3ccccc3)cc3ccccn23)c1 [Example 25] | – | – | – | – | – | – | 1 (a grade of 1 represents an MIC of greater than 10 mg/L) | 2 (A grade of 2 represents an MIC of from 1 to 10) | 1 (a grade of 1 represents an MIC of greater than 10 mg/L) | 1 (a grade of 1 represents an MIC of greater than 10 mg/L) | 2 (A grade of 2 represents an MIC of from 1 to 10) | 2 (A grade of 2 represents an MIC of from 1 to 10) | –
O=C(Nc1ccc(N2CCC(N3CCOCC3)CC2)cc1)C(=O)c1c(-c2ccccc2Cl)cc2ccccn12 [Example 26, 2-[2-(2-Chloro-phenyl)-indolizin-3-yl]-N-[4-(4-morpholin-4-yl-piperidin-1-yl)-phenyl]-2-oxo-acetamide] | 1 to 10 µg/mL (≈ 1.84 to 18.4 µM) | < 1 µg/mL | < 1 µg/mL | 1 to 10 µg/mL (≈ 1.84 to 18.4 µM) | 1 to 10 µg/mL (≈ 1.84 to 18.4 µM) | < 1 µg/mL | – | – | – | – | – | – | –
CCN(CC)C(=O)Oc1cc(-c2ccc(NC(=O)C(=O)c3c(-c4ccccc4)cc4ccccn34)cc2)on1 [Example 27, Diethyl-carbamic acid-5-{4-[2-oxo-2-(2-phenyl-indolizin-3-yl)-acetylamino]-phenyl}-isoxazol-3-yl ester] | – | – | – | – | – | – | – | – | – | – | – | – | MIC ([1]; AF293, read-out: MIC A. fumigatus (grade)): < 1 µg/mL; MIC (Aspergillus terreus AT49; AT49, read-out: MIC A. terreus 49 (grade)): < 1 µg/mL; MIC ([2]; AF210, read-out: MIC A. fumigatus 210 (grade)): < 1 µg/mL; MIC (Aspergillus niger): < 1 µg/mL; MIC (Aspergillus terreus AT4; AT4, read-out: MIC A. terreus (grade)): < 1 µg/mL; MIC (Aspergillus flavus): < 1 µg/mL
CCOCCN(C1=NC(C)(C)CO1)c1ccc(NC(=O)C(=O)c2c(-c3ccccc3)cc3ccccn23)cc1 [Example 28] | – | – | – | – | – | – | 2 (A grade of 2 represents an MIC of from 1 to 10) | 2 (A grade of 2 represents an MIC of from 1 to 10) | 2 (A grade of 2 represents an MIC of from 1 to 10) | 3 (A grade of 3 represents an MIC of less than 1 mg/L) | 2 (A grade of 2 represents an MIC of from 1 to 10) | 2 (A grade of 2 represents an MIC of from 1 to 10) | –
O=C(Nc1ccc(N2CCN(Cc3ccco3)CC2)cc1)C(=O)c1c(-c2ccccc2)cc2ccccn12 [Example 31, 4-[4-(2-Furan-2-yl-methyl-piperazin-yl)-phenyl]-2-oxo-2-(2-phenyl-indolizin-3-yl)-acetamide] | – | – | – | – | – | – | 3 (A grade of 3 represents an MIC of less than 1 mg/L) | 3 (A grade of 3 represents an MIC of less than 1 mg/L) | 3 (A grade of 3 represents an MIC of less than 1 mg/L) | 3 (A grade of 3 represents an MIC of less than 1 mg/L) | 3 (A grade of 3 represents an MIC of less than 1 mg/L) | 3 (A grade of 3 represents an MIC of less than 1 mg/L) | –
O=C(Nc1ccc(N2CCN(Cc3cccs3)CC2)cc1)C(=O)c1c(-c2ccccc2)cc2ccccn12 [Example 33, 2-Oxo-2-(2-phenylindolizin-3-yl)-N-[4-(4-thiophen-2-ylmethylpiperazin-1-yl)phenyl] acetamide] | – | – | – | – | – | – | 3 (A grade of 3 represents an MIC of less than 1 mg/L) | 3 (A grade of 3 represents an MIC of less than 1 mg/L) | 3 (A grade of 3 represents an MIC of less than 1 mg/L) | 3 (A grade of 3 represents an MIC of less than 1 mg/L) | 3 (A grade of 3 represents an MIC of less than 1 mg/L) | 3 (A grade of 3 represents an MIC of less than 1 mg/L) | –

Continued, in another order:

MIC [1, 3] | MIC (Aspergillus terreus AT49; [4]) | MIC [2, 5] | MIC (Aspergillus niger; [6]) | MIC (Aspergillus terreus AT4; [7]) | MIC (Aspergillus flavus; [6]) | Compound | MIC A. fumigatus (grade) [1, 8] | MIC A. terreus 49 (grade) (Aspergillus terreus AT49; [9]) | MIC A. fumigatus 210 (grade) [2, 10] | MIC A. niger (grade) (Aspergillus niger; [6]) | MIC A. terreus (grade) (Aspergillus terreus AT4; [11]) | MIC A. flavus (grade) (Aspergillus flavus; [6]) | other results
> 10 µg/mL | 1 to 10 µg/mL (≈ 1.98 to 19.8 µM) | > 10 µg/mL | > 10 µg/mL | 1 to 10 µg/mL (≈ 1.98 to 19.8 µM) | > 10 µg/mL | CN1CCN(c2ccc(NC(=O)C(=O)c3c(-c4ccccc4)cc4ccccn34)cc2-c2ncco2)CC1 [Example 19, N-[4-(4-methyl-piperazin-1-yl)-3-oxazol-2-yl-phenyl]-2-oxo-2-(2-phenyl-indolizin-3-yl)-acetamide] | – | – | – | – | – | – | –
1 to 10 µg/mL (≈ 1.92 to 19.2 µM) | < 1 µg/mL | 1 to 10 µg/mL (≈ 1.92 to 19.2 µM) | > 10 µg/mL | 1 to 10 µg/mL (≈ 1.92 to 19.2 µM) | < 1 µg/mL | Cc1nccn1CCCOc1ccc(NC(=O)C(=O)c2c(-c3ccccc3)cc3ccccn23)cc1C(C)C [Example 20, N-{3-Isopropyl-4-[3-(2-methyl-imidazol-1-yl)-propoxy]-phenyl}-2-oxo-2-(2-phenyl-indolizin-3-yl)-acetamide] | – | – | – | – | – | – | –
> 10 µg/mL | 1 to 10 µg/mL (≈ 1.78 to 17.8 µM) | > 10 µg/mL | > 10 µg/mL | 1 to 10 µg/mL (≈ 1.78 to 17.8 µM) | 1 to 10 µg/mL (≈ 1.78 to 17.8 µM) | CC(C)c1nccn1CCOC(=O)C(C)(C)c1cccc(NC(=O)C(=O)c2c(-c3ccccc3)cc3ccccn23)c1 [Example 22, 2-Methyl-2-{3-[2-oxo-2-(2-phenyl-indolizin-3-yl)-acetylamino]-phenyl}-propionic acid 2-(2-isopropyl-imidazol-1-yl)-ethyl ester] | – | – | – | – | – | – | –
< 1 µg/mL | < 1 µg/mL | 1 to 10 µg/mL (≈ 1.66 to 16.6 µM) | < 1 µg/mL | < 1 µg/mL | < 1 µg/mL | CN1CCN(c2oc(-c3ccc(NC(=O)C(=O)c4c(-c5ccccc5)cc5ccccn45)cc3)nc2C(=O)C(F)(F)F)CC1 [Example 29, N-{4-[5-(4-Methyl-piperazin-1-yl)-4-(2,2,2-trifluoro-acetyl)-oxazol-2-yl]-phenyl}-2-oxo-2-(2-phenyl-indolizin-3-yl)-acetamide] | – | – | – | – | – | – | –
< 1 µg/mL | < 1 µg/mL | < 1 µg/mL | < 1 µg/mL | < 1 µg/mL | < 1 µg/mL | Cc1cc(C)nc(N2CCN(c3ccc(NC(=O)C(=O)c4c(-c5ccccc5)cc5ccc(F)cn45)cc3)CC2)c1 [Example 32, N-{4-[4-(4,6-Dimethyl-pyridin-2-yl)-piperazin-1-yl]-phenyl}-2-(6-fluoro-2-phenyl-indolizin-3-yl)-2-oxo-acetamide] | – | – | – | – | – | – | –
